# Tests used:
# [1] = biological target: T1, Euglena Δ^8-desaturase (EFD1) (Euglena gracilis, UniProt Q9SWQ9); format: cell-based; settings: for desaturated share of the total incorporated 20-carbon fatty acid: S. cerevisiae with pYES2-541, 2% galactose, 0.2 mM fatty acid soap, overnight at 28° C.; for substrate preference over 20:1: EFD1 expressed in yeast; for desaturation of Δ^5 and Δ^6 substrates by EFD1 (in words): S. cerevisiae with pYES2-541, medium supplemented with the fatty acid
# T1 construct: The resulting yeast expression construct containing the open reading frame under the control of a galactose-inducible promoter was designated pYES2-541; expressed in transfected cells; host or cells: Saccharomyces cerevisiae INVSc1, plasmid pYES2-541 (GAL1 promoter)
# Source text: For E. gracilis, the cloned Δ^8 gene was transferred to the yeast expression vector pYES2 (Invitrogen, Carlsbad, Calif.) by standard cloning techniques (Ausubel, Current Protocols In Molecular Biology, 1988) using enzymes obtained from New England Biolabs, Beverly, Mass. The resulting yeast expression construct containing the open reading frame under the control of a galactose-inducible promoter was designated pYES2-541.
# Saccharomyces cerevisiae strain INVSc1 (Invitrogen) was transformed with pYES2-541 and cultured using standard methods (Ausubel, Current Protocols In Molecular Biology, 1988). Liquid medium containing 2% galactose was supplemented with fatty acid soaps (NuCheck Prep, Elysian Minn.) at a final concentration of 0.2 mM. Tergitol (1%, NP40) was added to the yeast cultures to enhance fatty acid uptake (Stukey et al., J. Biol. Chem. 264:16537-16544, 1989), except for cultures containing 20:1, where 5% DMSO was substituted. Yeast were incubated overnight at 28° C., harvested by centrifugation, washed once with 1% Tergitol, once with 0.5% Tergitol, and finally once with distilled water.
# (§1) Extraction of lipids and preparation of fatty acid methyl esters was carried out by standard methods (Miguel and Browse, J. Biol. Chem. 267:1502-1509, 1992). Gas chromatography of the methyl esters was conducted by established methods (Spychalla et al., Proc. Natl. Acad. Sci. USA 94:1142-1147, 1997). Fatty acid 4,4-Dimethyloxazoline (DMOX) derivatives of yeast lipid extracts were prepared by standard methods (Fay and Richli, J. Chromatogr. 541:89-98, 1991). GC-mass spectrometry was conducted on a Hewlett-Packard 6890 series GC-MS fitted with a 30 m×[…] HPSMS column, operating at an ionization voltage of 70 eV with a scan range of 50-550 Da. Fatty acids and their derivatives were identified where possible by comparison with authentic standards (NuCheck Prep).
# To confirm the activity of the enzyme, the EFD1 cDNA was transferred from pJW541 to yeast expression vector pYES2 under the control of a galactose-inducible promoter. The resulting construct, pYES2-541, was introduced into S. cerevisiae. […] Accordingly, yeast cultures were supplemented with various fatty acid soaps, using a yeast strain containing the empty vector as control, and analyzed the fatty acids of the cultures by methyl-ester derivatization and gas chromatography.
# [2] = biological target: T2, C. elegans Δ^5-desaturase (FAT-4) (Caenorhabditis elegans, UniProt G5EG11); assay: C. elegans FAT-4 (pYES2, fat-4) expressed in yeast fed fatty acid substrates, GC analysis; format: cell-based; settings: for activity of FAT-4 on substrate (in words): yeast expressing FAT-4, substrate fed; for substrate converted to desaturation product: yeast expressing FAT-4, 2% galactose, 0.2 mM fatty acid, 16 hours, 18:1 is endogenous; for amount desaturated relative to conventional substrate 20:3Δ^8,11,14: yeast expressing the C. elegans Δ^5-desaturase gene
# T2 construct: The resulting peptide length was 447 amino acids instead of the previously predicted 454 amino acids; expressed in transfected cells; host or cells: Saccharomyces cerevisiae INVSc1, plasmid pYFAT4 (pYES2, GAL1 promoter)
# T2 sequence (G5EG11 1-447): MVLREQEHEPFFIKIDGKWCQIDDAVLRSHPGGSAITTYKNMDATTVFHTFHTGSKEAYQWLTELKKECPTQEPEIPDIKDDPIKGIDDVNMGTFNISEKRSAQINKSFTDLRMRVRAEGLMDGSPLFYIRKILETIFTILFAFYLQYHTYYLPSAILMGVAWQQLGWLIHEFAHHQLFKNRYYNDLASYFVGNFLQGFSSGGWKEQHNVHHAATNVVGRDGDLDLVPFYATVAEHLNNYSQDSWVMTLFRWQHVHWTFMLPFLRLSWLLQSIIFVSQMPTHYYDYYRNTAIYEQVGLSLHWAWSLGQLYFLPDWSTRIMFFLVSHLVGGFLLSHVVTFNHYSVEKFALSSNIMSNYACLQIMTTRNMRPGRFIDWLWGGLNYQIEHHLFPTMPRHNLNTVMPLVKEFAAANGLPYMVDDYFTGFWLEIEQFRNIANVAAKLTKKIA
# Method: To express the C. elegans Δ^5-desaturase, the fat-4 cDNA amplification product (see Example 3) was digested with HindIII and BamH1 and ligated to the yeast expression vector pYES2 (Invitrogen) cut with HindIII and BamH1. The resulting plasmid was named pYFAT4.
# For the C. elegans Δ^5 gene, the constructs were transformed into Saccharomyces cerevisiae strain INVSc1 using the S.c. EasyComp transformation kit (Invitrogen). For experiments with the FAT-4 peptide, transformed yeast were grown overnight in uracil-deficient media containing 2% galactose, 0.2 mM fatty acid, and 1% NP-40.
# as §1
# To determine the enzymatic activity of the FAT-4 desaturase-like protein, the protein was expressed in Saccharomyces cerevisiae supplemented with polyunsaturated fatty acid substrates that are not normally present in this yeast. The FAT-4 protein was expressed in the yeast expression vector pYES2 from the GAL1 promoter by growing the cells in the presence of galactose and various fatty acids. After 16 hours of growth, the cells were analyzed for total fatty acid composition by gas chromatography (GC).
# [3] = biological target: T3, C. elegans Δ^6-desaturase (FAT-3) (Caenorhabditis elegans, UniProt Q23221); assay: C. elegans FAT-3 expressed in yeast (pMK195, ADH promoter), substrate desaturation; format: cell-based; settings: yeast expressing fat-3 from pMK195
# T3 construct: Codons for amino acid residues 38-67 of W08D2.4 were not present in the cDNA; expressed in transfected cells; host or cells: yeast (Saccharomyces cerevisiae), vector pMK195, constitutive ADH promoter
# T3 sequence (Q23221 1-443): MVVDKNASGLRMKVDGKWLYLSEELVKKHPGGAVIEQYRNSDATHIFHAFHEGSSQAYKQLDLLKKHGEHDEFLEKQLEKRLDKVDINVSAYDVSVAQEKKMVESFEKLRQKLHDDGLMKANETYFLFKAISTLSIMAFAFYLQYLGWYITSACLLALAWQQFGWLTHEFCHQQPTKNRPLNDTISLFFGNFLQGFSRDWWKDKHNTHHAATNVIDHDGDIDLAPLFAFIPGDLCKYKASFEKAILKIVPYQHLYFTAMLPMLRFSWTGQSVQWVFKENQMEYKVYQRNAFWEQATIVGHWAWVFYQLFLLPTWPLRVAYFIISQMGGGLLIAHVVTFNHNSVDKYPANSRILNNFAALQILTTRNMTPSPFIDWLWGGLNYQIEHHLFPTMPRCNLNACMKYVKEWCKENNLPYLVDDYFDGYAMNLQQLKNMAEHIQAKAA
# Source text: The fat-3 gene was expressed in the yeast expression vector pMK195 containing the constitutive ADH promoter.
# Δ^5- and Δ^8-desaturases = assay: Yeast cell transformed with both Δ^5- and Δ^8-desaturase genes (pYFAT4 + pYX232-541) fed fatty acid substrates, GC; format: cell-based, Saccharomyces cerevisiae; settings: for One added desaturation / Unconverted substrate: overnight culture at 28° C.; for Doubly desaturated product: products 20:5 (5, 8, 11, 14, 17), 20:4 (5, 8, 11, 14), 20:3 (5, 8, 11)
# Source text: The cDNA portion of pJW541 (Wallis and Browse, Arch. Biochem. Biophys. 365:307-316, 1999) containing the Euglena Δ^8-desaturase was excised from that plasmid with the restriction enzymes EcoRI and SpeI. The purified DNA fragment representing the insert was ligated into the yeast expression vector pYX232 (R&D Systems, Inc.) that had been prepared by digestion with EcoRI and NheI, to give compatible sticky ends. (Plasmid pYX232 carries the marker conferring yeast prototrophy for tryptophan (TRP1 mutation), and uses the triose phosphate isomerase (TPI) promoter for constitutive expression of the inserted DNA.) The resulting plasmid, pYX232-541, was introduced into the Saccharomyces cerevisiae strain already harboring the Δ^5-desaturase (pYFAT4; Watts and Browse, Arch. Biochem. Biophys. 362:175-182, 1999) plasmid that confers yeast prototrophy for uracil using a lithium acetate transformation procedure (Invitrogen). Transformants were selected simultaneously for uracil and tryptophan prototrophy. Selected colonies arising after the transformation were inoculated into yeast minimal medium that also lacked both uracil and tryptophan.
# For analysis of activity, separate cultures were supplemented with one of three fatty acid substrates provided as sodium salts as described (Wallis and Browse, Arch. Biochem. Biophys. 365:307-316, 1999). After overnight culture at 28° C., the cultures were harvested by centrifugation and washed. Fatty acid methyl esters were prepared using the standard methods described in Miguel and Browse J. Biol. Chem. 267:1502-1509, 1992.
# [4] = biological target: T4, Δ^5-desaturase activity in microsomal extracts of mammalian liver (Rattus norvegicus, UniProt Q920R3); settings: labeled substrate; cited from earlier work
# T4 construct: the rates of desaturation in microsomal extracts of mammalian liver; host or cells: microsomal extracts of mammalian liver
# T4 sequence (Q920R3 whole entry, stated change not applied): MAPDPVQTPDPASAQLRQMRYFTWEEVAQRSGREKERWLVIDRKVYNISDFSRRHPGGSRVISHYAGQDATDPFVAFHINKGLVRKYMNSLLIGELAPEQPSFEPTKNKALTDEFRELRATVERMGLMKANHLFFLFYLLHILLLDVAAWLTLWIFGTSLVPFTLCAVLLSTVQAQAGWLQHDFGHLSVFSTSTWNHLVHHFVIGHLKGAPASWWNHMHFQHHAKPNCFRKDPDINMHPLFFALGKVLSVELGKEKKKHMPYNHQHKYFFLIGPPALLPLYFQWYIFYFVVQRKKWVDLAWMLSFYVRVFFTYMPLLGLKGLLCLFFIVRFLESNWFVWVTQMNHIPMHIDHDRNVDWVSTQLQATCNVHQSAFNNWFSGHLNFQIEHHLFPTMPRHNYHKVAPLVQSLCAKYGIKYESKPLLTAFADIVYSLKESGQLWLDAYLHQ
# T1 sequence (Q9SWQ9 other isoform, or with tags, fused parts or gaps with the stated changes): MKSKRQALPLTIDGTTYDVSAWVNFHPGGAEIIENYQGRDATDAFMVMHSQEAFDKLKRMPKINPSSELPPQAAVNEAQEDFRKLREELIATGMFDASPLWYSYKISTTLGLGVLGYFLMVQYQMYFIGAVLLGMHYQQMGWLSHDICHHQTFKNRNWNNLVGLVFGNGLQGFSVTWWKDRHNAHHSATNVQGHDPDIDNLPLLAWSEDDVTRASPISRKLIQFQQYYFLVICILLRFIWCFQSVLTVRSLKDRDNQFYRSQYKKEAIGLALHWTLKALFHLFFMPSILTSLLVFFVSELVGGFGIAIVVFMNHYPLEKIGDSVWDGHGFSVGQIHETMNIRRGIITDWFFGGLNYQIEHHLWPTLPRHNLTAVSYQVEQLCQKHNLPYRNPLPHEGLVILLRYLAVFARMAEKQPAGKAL
Structure (SMILES),desaturated share of the total incorporated 20-carbon fatty acid [1] [%],activity of FAT-4 on substrate (in words) [2],activity of FAT-3 on substrate (in words) [3],One added desaturation (Δ^5- and Δ^8-desaturases),Unconverted substrate (Δ^5- and Δ^8-desaturases),Doubly desaturated product (Δ^5- and Δ^8-desaturases),substrate preference over 20:1 [1],substrate converted to desaturation product [2] [%],"amount desaturated relative to conventional substrate 20:3Δ^8,11,14 [2]","rate of conversion to 20:3Δ^5,11,14 relative to rate of conversion of labeled 20:3Δ^8,11,14 to 20:4Δ^5,8,11,14 [4] [%]",desaturation of Δ^5 and Δ^6 substrates by EFD1 (in words) [1]
CCCCCCCCC=CCCCCCCCCCC(=O)O [20:1Δ^11],32,No novel peaks were detected,no activity,18 mass percent of incorporated 20-carbon fatty acids,72 mass percent of incorporated 20-carbon fatty acids,11 mass percent of incorporated 20-carbon fatty acids,,,,,
"CCCCCC=CCC=CCCCCCCCCCC(=O)O [20:2Δ^11,14]",73,,no activity,18 mass percent of incorporated 20-carbon fatty acids,70 mass percent of incorporated 20-carbon fatty acids,13 mass percent of incorporated 20-carbon fatty acids,greater than two-fold preference,27,less than half,41,
"CCC=CCC=CCC=CCCCCCCCCCC(=O)O [20:3Δ^11,14,17]",70,,no activity,17 mass percent of incorporated 20-carbon fatty acids,71 mass percent of incorporated 20-carbon fatty acids,11 mass percent of incorporated 20-carbon fatty acids,greater than two-fold preference,26,less than half,,
CCCCC/C=C\C/C=C\C/C=C\CCCCCCC(=O)O [di-homo-γ-linolenic acid],,,no activity,,,,,55,,,
CCCCC/C=C\C/C=C\CCCCCCCC(=O)O [linoleic acid],,no activity,able to desaturate,,,,,,,,no desaturation occurred
CC/C=C\C/C=C\C/C=C\CCCCCCCC(=O)O [α-linolenic acid],,,capable of desaturating,,,,,,,,no desaturation occurred
CCCCC/C=C\C/C=C\C/C=C\CCCCC(=O)O [γ-linolenic acid],,no activity,,,,,,,,,

# Reference: US10351871B2, “Desaturases and methods of using them for synthesis of polyunsaturated fatty acids” (Washington State University, priority 1998, dated 2019)
